pKi: −log10 of the molar value. Like-named read-outs stand apart in the source and are kept apart here. Blank lines part the entries; values can stand above or below the compound they belong to.
Tests used:
[1] = Safety: treatment-emergent adverse events in study CL-0538; type: in vivo, healthy subjects; details: for TEAE dry mouth, subjects / TEAE headache, subjects: CL-0538; for number of TEAEs considered possibly related to the study drug / subjects with TEAEs considered possibly related to the study drug: investigator assessment
[2] = plasma
[3] = for CL/F lower in the presence of roxadustat: concomitant roxadustat vs statin alone; for increase of AUCinf / increase of Cmax: statin dosed concomitantly with roxadustat vs statin alone
[4] = clinical; details: human, in vivo; for AUC(0-inf): AUCinf
[5] = Safety: treatment-emergent adverse events in study CL-0537; type: in vivo, healthy subjects; details: for TEAE headache, subjects / TEAE nasopharyngitis, subjects: CL-0537; for number of TEAEs considered related to the study drug / subjects with TEAEs considered related to the study drug: investigator assessment
[6] = test system: CYP2C8; details: read-out: inhibition constant (Ki); in vitro; cited from earlier work
[7] = cited from earlier work
[8] = Safety and tolerability across the 3 studies; type: in vivo, healthy subjects; details: roxadustat 200 mg, observation periods of the 3 studies
[9] = for AUC(0-inf) / Cmax / half-life / Tmax / AUC(0-t): human, in vivo; for AUC(0-inf): AUCinf; for AUC(0-t): AUClast
[10] = Safety: treatment-emergent adverse events in study CL-0541; type: in vivo, healthy subjects
[11] = atorvastatin 40 mg + roxadustat 200 mg, concomitant
[12] = statin + roxadustat 200 mg (steady state), concomitant, plasma
[13] = statin + roxadustat / statin alone
[14] = statin alone, single oral dose, plasma
[15] = po, mean (SD), statin alone, single oral dose, plasma
[16] = 40 mg, mean (SD), simvastatin 40 mg alone, plasma
[17] = mean (SD), simvastatin administered 2 hours before roxadustat, plasma
[18] = mean (SD), simvastatin administered 4 hours after roxadustat, plasma
[19] = mean (SD), simvastatin administered 10 hours after roxadustat, plasma
[20] = median (min-max), simvastatin administered 2 hours before roxadustat, plasma
[21] = median (min-max), simvastatin administered 4 hours after roxadustat, plasma
[22] = median (min-max), simvastatin administered 10 hours after roxadustat, plasma
[23] = GLS mean for statin alone, statin alone
[24] = po, median (min-max), statin alone, single oral dose, plasma
[25] = simvastatin administered 2 hours before roxadustat
[26] = simvastatin administered 4 hours after roxadustat
[27] = simvastatin administered 10 hours after roxadustat

Structure (SMILES): CC(C)c1c(C(=O)Nc2ccccc2)c(-c2ccccc2)c(-c2ccc(F)cc2)n1CC[C@@H](O)C[C@@H](O)CC(=O)O [Atorvastatin]
TEAE dry mouth, subjects [1]: 0.0%
TEAE headache, subjects [1]: 4.2%
number of TEAEs considered possibly related to the study drug [1]: 2
subjects with TEAEs considered possibly related to the study drug [1]: 2 (8.3%) n (%)
tlag, mean (SD) [2, 11]: 0 (0.0) h
tlag, median (min-max) [2, 11]: 0 (0–0) h
tlag, mean (SD) ([2]; atorvastatin 40 mg alone): 0 (0.0) h
tlag, median (min-max) ([2]; atorvastatin 40 mg alone): 0 (0–0) h

Structure (SMILES): CC(C)c1nc(N(C)S(C)(=O)=O)nc(-c2ccc(F)cc2)c1/C=C/[C@@H](O)C[C@@H](O)CC(=O)O [Rosuvastatin]
CL/F lower in the presence of roxadustat [3]: 66%
AUCinf, GLS mean for statin alone ([3]; human, in vivo): 62 878 pg • h/mL
AUCinf, mean (SD) ([3]; human, in vivo): 196 187 (95 367) pg • h/mL
AUCinf, median (min-max) ([3]; human, in vivo): 177 873 (48 036–503 953) pg • h/mL
AUClast, mean (SD) ([3]; human, in vivo): 192 156 (95 253) pg • h/mL
AUClast, median (min-max) ([3]; human, in vivo): 173 565 (43 917–498 457) pg • h/mL
Cmax, mean (SD) ([3]; human, in vivo): 22 980 (12 787) pg/mL
Cmax, median (min-max) ([3]; human, in vivo): 19 811 (4059–58 463) pg/mL
tlag, mean (SD) ([3]; human, in vivo): 0 (0.0) h
tlag, median (min-max) ([3]; human, in vivo): 0 (0–0) h
AUCinf, mean (SD) ([3]; human, in vivo, po): 67 613 (33 727) pg • h/mL
AUCinf, median (min-max) ([3]; human, in vivo, po): 57 187 (21 336–165 242) pg • h/mL
AUClast, mean (SD) ([3]; human, in vivo, po): 61 459 (34 796) pg • h/mL
AUClast, median (min-max) ([3]; human, in vivo, po): 54 017 (0–159 223) pg • h/mL
Cmax, mean (SD) ([3]; human, in vivo, po): 4939 (2991) pg/mL
Cmax, median (min-max) ([3]; human, in vivo, po): 4062 (0–13 775) pg/mL
tlag, mean (SD) ([3]; human, in vivo, po): 0 (0.0) h
tlag, median (min-max) ([3]; human, in vivo, po): 0 (0–0) h
CL/F, mean (SD) [3, 12]: 63.4 (35.8) L/h
CL/F, median (min-max) [3, 12]: 56.22 (19.8–208) L/h
AUCinf, GLS mean ratio (%) [3, 13]: 292.55%
Cmax, GLS mean ratio (%) [3, 13]: 447.33%
CL/F, mean (SD) [3, 14]: 185.3 (91.3) L/h
CL/F, median (min-max) [3, 14]: 174.9 (60.5–469) L/h
tmax, median (min-max) [3, 14]: 4.00 (3.00–6.02) h
increase of AUCinf [3]: 2.93 fold
increase of Cmax [3]: 4.47 fold
AUC(0-inf) ([4]; GLS mean for roxadustat + statin): 184 ng·h/mL
Cmax ([4]; GLS mean for statin alone): 4.65 ng/mL
half-life ([4]; po, t1/2, mean (SD), statin alone, single oral dose, plasma): 15.5 h
half-life ([4]; po, t1/2, median (min-max), statin alone, single oral dose, plasma): 15.2 h
Tmax [4, 15]: 3.9 h
TEAE headache, subjects [5]: 0.0%
TEAE nasopharyngitis, subjects [5]: 0.0%
number of TEAEs considered related to the study drug [5]: 2
subjects with TEAEs considered related to the study drug [5]: 2 (7.1%) n (%)

Structure (SMILES): Cc1nc(C(=O)NCC(=O)O)c(O)c2ccc(Oc3ccccc3)cc12 [Roxadustat]
pKi [6]: 4.80
TEAE dry mouth, subjects [1]: 8.3%
TEAE headache, subjects [1]: 4.2%
number of TEAEs considered possibly related to the study drug [1]: 3
subjects with TEAEs considered possibly related to the study drug [1]: 2 (8.3%) n (%)
terminal elimination half-life (t1/2) ([7]; after single-dose oral administration, healthy subjects): ≈ 12 hours
time to maximum plasma concentrations (Cmax) after dosing ([7]; fasted state): ≤ 2 h
time to reach maximum plasma concentration (Cmax) ([7]; oral, healthy subjects): ≤ 2 h
deaths, serious TEAEs, AEs leading to discontinuation [8]: did not result in any deaths, serious TEAEs, or AEs leading to discontinuation of study drug
TEAE headache, subjects [5]: 7.1%
TEAE nasopharyngitis, subjects [5]: 0.0%
number of TEAEs considered related to the study drug [5]: 4
subjects with TEAEs considered related to the study drug [5]: 4 (14.3%) n (%)

tlag, mean (SD) [3, 12]: 0.29 (0.35) h
tlag, median (min-max) [3, 12]: 0 (0–1.02) h
tlag, mean (SD) [3, 14]: 0.47 (0.31) h
tlag, median (min-max) [3, 14]: 0.50 (0–1.00) h
increase of AUCinf [3]: 1.85 fold
increase of Cmax [3]: 2.76 fold
AUC(0-inf) [9, 16]: 24.3 ng·h/mL
AUC(0-inf) ([9]; 40 mg, median (min-max), simvastatin 40 mg alone, plasma): 21.2 ng·h/mL
Cmax [9, 16]: 2.12 ng/mL
half-life ([9]; 40 mg, t1/2, mean (SD), simvastatin 40 mg alone, plasma): 7 h
half-life ([9]; 40 mg, t1/2, median (min-max), simvastatin 40 mg alone, plasma): 6.36 h
Tmax [9, 16]: 5.38 h
AUC(0-inf) ([9]; GLS mean for simvastatin alone, simvastatin alone): 21 ng·h/mL
AUC(0-inf) [9, 17]: 48.7 ng·h/mL
AUC(0-inf) [9, 18]: 84.7 ng·h/mL
AUC(0-inf) [9, 19]: 59.4 ng·h/mL
AUC(0-inf) [9, 20]: 41 ng·h/mL
AUC(0-inf) [9, 21]: 70.3 ng·h/mL
AUC(0-inf) [9, 22]: 50.5 ng·h/mL
AUC(0-t) [9, 17]: 44.7 ng·h/mL
AUC(0-t) [9, 18]: 82.8 ng·h/mL
AUC(0-t) [9, 19]: 57.4 ng·h/mL
AUC(0-t) [9, 20]: 38.2 ng·h/mL
AUC(0-t) [9, 21]: 68.9 ng·h/mL
AUC(0-t) [9, 22]: 49.8 ng·h/mL
Cmax [9, 17]: 4.99 ng/mL
Cmax [9, 18]: 12.8 ng/mL
Cmax [9, 19]: 7.13 ng/mL
Cmax [9, 20]: 4.5 ng/mL
Cmax [9, 21]: 11.6 ng/mL
Cmax [9, 22]: 6.1 ng/mL
half-life ([9]; t1/2, mean (SD), simvastatin administered 2 hours before roxadustat, plasma): 4.6 h
half-life ([9]; t1/2, mean (SD), simvastatin administered 4 hours after roxadustat, plasma): 3.75 h
half-life ([9]; t1/2, mean (SD), simvastatin administered 10 hours after roxadustat, plasma): 4.16 h
half-life ([9]; t1/2, median (min-max), simvastatin administered 2 hours before roxadustat, plasma): 4.27 h
half-life ([9]; t1/2, median (min-max), simvastatin administered 4 hours after roxadustat, plasma): 3.45 h
Tmax [9, 17]: 5.55 h
Tmax [9, 18]: 4.01 h
Tmax [9, 19]: 4.4 h
Tmax [9, 20]: 6 h
Tmax [9, 22]: 4.01 h
AUClast, mean (SD) ([9]; simvastatin 40 mg alone, plasma): 22.17 (11.98) ng • h/mL
tmax, median (min-max) ([9]; simvastatin administered 4 hours after roxadustat, plasma): 4.00 (2.02–6.00) h
AUC(0-inf) [4, 23]: 24.6 ng·h/mL
Cmax [4, 23]: 1.86 ng/mL
Cmax [4, 15]: 2.17 ng/mL
Cmax [4, 24]: 2.06 ng/mL
half-life ([4]; po, t1/2, mean (SD)): 6.28 h
half-life ([4]; po, t1/2, median (min-max)): 5.78 h
Tmax [4, 15]: 5.7 h
Tmax [4, 24]: 4.02 h
half-life ([4]; t1/2, mean (SD)): 5.98 h
half-life ([4]; t1/2, median (min-max)): 5.27 h
Structure (SMILES): CCC(C)(C)C(=O)O[C@H]1C[C@@H](C)C=C2C=C[C@H](C)[C@H](CC[C@@H](O)C[C@@H](O)CC(=O)O)[C@H]21 [Simvastatin acid]

Structure (SMILES): CCC(C)(C)C(=O)O[C@H]1C[C@@H](C)C=C2C=C[C@H](C)[C@H](CC[C@@H]3C[C@@H](O)CC(=O)O3)[C@H]21 [Simvastatin]
CL/F lower in the presence of roxadustat [3]: 40%
increase of Cmax [3]: 1.87 fold
lower mean CL/F ([9]; simvastatin 2 hours before roxadustat): 42%
lower mean CL/F ([9]; simvastatin 4 hours after roxadustat): 51%
lower mean CL/F ([9]; simvastatin 10 hours after roxadustat): 46%
TEAE headache, subjects [10, 25]: 16.7%
TEAE incidence: Overall [10, 25]: 9 (37.5%) n (%)
total number of TEAEs [10, 25]: 12
TEAE headache, subjects [10, 26]: 4.2%
TEAE incidence: Overall [10, 26]: 6 (25.0%) n (%)
number of TEAEs of dizziness possibly related to the study drug [10, 26]: 1
subjects with TEAE of dizziness possibly related to the study drug [10, 26]: 1 (4.2%) n (%)
total number of TEAEs [10, 26]: 8
TEAE headache, subjects [10, 27]: 8.3%
TEAE incidence: Overall [10, 27]: 4 (16.7%) n (%)
number of TEAEs of dizziness possibly related to the study drug [10, 27]: 2
subjects with TEAE of dizziness possibly related to the study drug [10, 27]: 1 (4.2%) n (%)
total number of TEAEs [10, 27]: 9
TEAE headache, subjects ([10]; simvastatin administered alone): 8.3%
TEAE incidence: Overall ([10]; simvastatin alone): 5 (20.8%) n (%)
total number of TEAEs ([10]; simvastatin alone): 6
TEAE headache, subjects [5]: 0.0%
TEAE nasopharyngitis, subjects [5]: 0.0%

From paper PMC9306950 (Clinical Pharmacology in Drug Development, 2022)
